≈ marks a conversion by molar mass, not a printed value.

For the assay, the system named is P388. Description: Cytotoxicity against mouse P388 cells. Format: functional, cell-based.

One may read the IC50 as the concentration that inhibits the measured activity by half. In turn, `COc1ccc(C[C@H]2C(=O)N[C@@H](C)C(=O)N(C)[C@H]3Cc4ccc(cc4)Oc4cc(ccc4OC)C[C@@H](C(=O)N[C@H](C)C(=O)N[C@@H](C)C(=O)N2C)N(C)C3=O)cc1` displayed an IC50 of 0.0015 µg/mL (≈ 0.00195 µM).

On to `COc1ccc2cc1Oc1ccc(cc1)C[C@@H]1NC(=O)[C@@H](C)NC(=O)[C@@H]3Cc4ccc(OC)c(c4)Oc4ccc(cc4)C[C@@H](C(=O)N3C)N(C)C(=O)[C@H](C)NC(=O)[C@H](C2)NC1=O`, for which 7.5 µg/mL (≈ 8.86 µM) corresponded to half-maximal inhibition (IC50).
